# According to ChEMBL document CHEMBL3881521, “Alpha-9 integrin antagonists and anti-inflammatory compositions therof” (2003):
# Active and inactive are the calls of the source. The rule behind the calls is not given here. *1 amine or outer side, *2 acyl side, *3 side chain or, on linkers, in order; H or OH if unused. Where a SMILES comes first, the peptide text is derived from it. Side-chain parts run from the residue outwards. [ ]: non-standard residue; d: D form. The star is where a group is joined. Tos = Cc1ccc(S(=O)(=O)*)cc1; NMeA = CN[C@@H](C)C(=O)O; CO = O=C([*:1])[*:2]; Sar = CNCC(=O)O
# Columns and labels:
# Format in all cases: cell-based
# [1] = molecular target: Integrin alpha-4/beta-1 (Homo sapiens) (UniProt P05556+P13612); assay: Inhibition of C-terminal human lgG1 heavy chain constant region tagged recombinant soluble VCAM-1 binding to integrin alpha4beta1 in human Jurkat cells incubated for 30 mins by FACS based 15/7 antibody assay
# SW480 [2] = assay: Selectivity for integrin alpha9beta1 (unknown origin) expressed in SW480 cells over integrin alpha4beta7 (unknown origin); settings: Homo sapiens
# SW480 [3] = assay: Selectivity for integrin alpha9beta1 (unknown origin) expressed in SW480 cells over integrin alpha5beta1 (unknown origin); settings: Homo sapiens
# [4] = molecular target: ITGB1-ITGA9 complex (Homo sapiens) (UniProt P05556+Q13797); assay: Antagonist activity against integrin alpha9beta1 (unknown origin) expressed in SW480 cells assessed as inhibition of integrin alpha9-dependent cell adhesion to tenascin by binding saturation assay
Compound,inhibition [1],Selectivity ratio (SW480 [2]),Selectivity ratio (SW480 [3]),inhibition [4]
Cc1ccc(S(=O)(=O)N2CS(=O)(=O)C(C)(C)[C@@H]2C(=O)N[C@@H](Cc2ccc(OC(=O)N(C)C)cc2)C(=O)O)cc1,Active,100,100,Active
Cc1ccc(S(=O)(=O)N2CCS(=O)(=O)C[C@@H]2C(=O)N[C@@H](Cc2ccc(OC(=O)N(C)C)cc2)C(=O)O)cc1,Active,100,100,Active
Cc1ccc(S(=O)(=O)N(C)[C@@H](C)C(=O)N[C@@H](Cc2ccc(OC(=O)N(C)C)cc2)C(=O)O)cc1 (Tos-[NMeA]-Tyr([CO-NMe2])-OH),Active,100,100,Active
Cc1ccc(S(=O)(=O)N2CCC[C@H]2C(=O)N[C@@H](Cc2ccc(OC(=O)N3CCNCC3)cc2)C(=O)O)cc1,Active,100,100,Active
Cc1ccc(S(=O)(=O)N2CS(=O)(=O)C(C)(C)[C@@H]2C(=O)N[C@@H](Cc2ccc(OCCCN(C)C)cc2)C(=O)O)cc1,Active,100,100,Active
Cc1ccc(S(=O)(=O)N(C)CC(=O)N[C@@H](Cc2ccc(OC(=O)N(C)C)cc2)C(=O)O)cc1 (Tos-[Sar]-Tyr([CO-NMe2])-OH),Active,100,100,Active
CN(C)C(=O)Oc1ccc(C[C@H](NC(=O)[C@@H]2CCCN2S(=O)(=O)c2cnn(C)c2)C(=O)O)cc1,Active,100,100,Active
Cc1ccc(S(=O)(=O)N2CCC[C@H]2C(=O)N[C@@H](Cc2ccc(OC(=O)N(C)C)cc2)C(=O)O)cc1 (Tos-Pro-Tyr([CO-NMe2])-OH),Active,100,100,Active
Cc1ccc(S(=O)(=O)N2CCC[C@H]2C(=O)N[C@@H](Cc2ccc(OC(=O)N3CCN(C)CC3)cc2)C(=O)O)cc1,Active,100,100,Active
